Measured values taken from ChEMBL document CHEMBL5331051, “Cationic, amphipathic small molecules based on a triazine-piperazine-triazine scaffold as a new class of antimicrobial agents” (Eur J Med Chem, 2022).
Converted amounts (≈) assume the structure as drawn. The source made the active and inactive calls. The calls are words filed in the database; no cut-off is given here. Positions of bridges follow the written chain, without caps; N, C: chain ends. Non-standard residues stand in square brackets, D forms with d. Residues, ends and D or L forms follow the SMILES beside them. *: point of attachment. Heptanoyl(6-Me) = CC(C)CCCCC(=O)*; dDab = NCC[C@@H](N)C(=O)O; Dab = NCC[C@H](N)C(=O)O

Tests used:
Pseudomonas aeruginosa [1] = experiment: Antibacterial activity against Pseudomonas aeruginosa KCTC 1637 strain assessed as bacterial growth inhibition measured at 18 to 24 hrs by microdilution assay; type: functional; settings: time 18-24 hrs
Escherichia coli = experiment: Antibacterial activity against Escherichia coli KCTC 1682 strain assessed as bacterial growth inhibition measured at 18 to 24 hrs by microdilution assay; type: functional; settings: time 18-24 hrs
Erythrocyte = experiment: Hemolytic activity in sheep RBC assessed as minimal hemolytic concentration causing 10% hemolysis incubated for 1 hr by ELISA; type: toxicity, cell-based, Ovis aries
[2] = test system: Staphylococcus epidermidis; experiment: Antibacterial activity against Staphylococcus epidermidis KCTC 1917 strain assessed as bacterial growth inhibition measured at 18 to 24 hrs by microdilution assay; type: functional; settings: time 18-24 hrs
Staphylococcus aureus [3] = experiment: Antibacterial activity against Staphylococcus aureus KCTC 1621 strain assessed as bacterial growth inhibition measured at 18 to 24 hrs by microdilution assay; type: functional; settings: time 18-24 hrs
Lipopolysaccharide (LPS) [4] = experiment: Binding affinity to Escherichia coli O111:B4 lipopolysaccharide assessed as suppression of FTIC labeled LPS binding to mouse RAW264.7 cells at 20 ug/ml pretreated with LPS followed by compound addition by flow cytometer assay (reference value: 67.4%); type: cell-based; settings: dose 20.0 µg/ml
Lipopolysaccharide (LPS) [5] = experiment: Binding affinity to Escherichia coli O111:B4 lipopolysaccharide assessed as suppression of FTIC labeled LPS binding to mouse RAW264.7 cells at 20 ug/ml pretreated LPS with cells for 1 hr followed by compound addition measured after 1 hr by flow cytometer assay (reference value: 48.12%); type: cell-based; settings: dose 20.0 µg/ml
Pseudomonas aeruginosa [6] = experiment: Antibacterial activity against multidrug-resistant Pseudomonas aeruginosa CCARM 2109 strain assessed as bacterial growth inhibition measured at 18 to 24 hrs by microdilution assay; type: functional; settings: time 18-24 hrs
Pseudomonas aeruginosa [7] = experiment: Bacteriostatic activity against multidrug-resistant Pseudomonas aeruginosa CCARM 2095 measured after 24 hrs by time-kill kinetics assay; type: functional, organism-based
Pseudomonas aeruginosa [8] = experiment: Synergistic antibacterial activity against multidrug-resistant Pseudomonas aeruginosa CCARM 2095 strain assessed as bacterial growth inhibition by checkerboard assay; type: functional
Staphylococcus aureus [9] = experiment: Antibacterial activity against methicillin-resistant Staphylococcus aureus CCARM 3089 strain assessed as bacterial growth inhibition by checkerboard assay; type: functional
Staphylococcus aureus [10] = experiment: Antibacterial activity against methicillin-resistant Staphylococcus aureus CCARM 3090 strain assessed as bacterial growth inhibition measured at 18 to 24 hrs by microdilution assay; type: functional; settings: time 18-24 hrs
Pseudomonas aeruginosa [11] = experiment: Antibacterial activity against multidrug-resistant Pseudomonas aeruginosa CCARM 2095 strain assessed as bacterial growth inhibition measured at 18 to 24 hrs by microdilution assay; type: functional; settings: time 18-24 hrs
Pseudomonas aeruginosa [12] = experiment: Bactericidal activity against multidrug-resistant Pseudomonas aeruginosa CCARM 2095 measured after 24 hrs by time-kill kinetics assay; type: functional, organism-based
Enterococcus faecium = experiment: Antibacterial activity against vancomycin-resistant Enterococcus faecium ATCC 51559 strain assessed as bacterial growth inhibition measured at 18 to 24 hrs by microdilution assay; type: functional; settings: time 18-24 hrs
Pseudomonas aeruginosa [13] = experiment: Additive antibacterial activity against multidrug-resistant Pseudomonas aeruginosa CCARM 2095 strain assessed as bacterial growth inhibition by checkerboard assay; type: functional
Staphylococcus aureus [14] = experiment: Antibacterial activity against methicillin-resistant Staphylococcus aureus CCARM 3089 strain assessed as bacterial growth inhibition measured at 18 to 24 hrs by microdilution assay; type: functional; settings: time 18-24 hrs
Staphylococcus aureus [15] = experiment: Antibacterial activity against methicillin-resistant Staphylococcus aureus CCARM 3095 strain assessed as bacterial growth inhibition measured at 18 to 24 hrs by microdilution assay; type: functional; settings: time 18-24 hrs
Pseudomonas aeruginosa [16] = experiment: Antibiofilm activity against multidrug-resistant Pseudomonas aeruginosa assessed as inhibition of biofilm formation; type: functional
Pseudomonas aeruginosa [17] = experiment: Antibiofilm activity against multidrug-resistant Pseudomonas aeruginosa assessed as biofilm eradication; type: functional

Compound	MIC (Pseudomonas aeruginosa [1])	MIC (Escherichia coli)	MHC (Erythrocyte)	MIC [2]	MIC (Staphylococcus aureus [3])	further results
NCCCNc1nc(NCCCN)nc(N2CCN(c3nc(NCCCN)nc(NCCCN)n3)C(Cc3ccccc3)C2)n1 (stereo not drawn)	51.2 µM (≈ 31.9 µg/mL)	51.2 µM (≈ 31.9 µg/mL)	> 409.6 µM	25.6 µM (≈ 15.9 µg/mL)	25.6 µM (≈ 15.9 µg/mL)	–
CC(C)CCCCC(=O)N[C@@H](CCN)C(=O)N[C@H](C(=O)N[C@@H](CCN)C(=O)N[C@H]1CCNC(=O)[C@H]([C@@H](C)O)NC(=O)[C@H](CCN)NC(=O)[C@H](CCN)NC(=O)[C@H](CC(C)C)NC(=O)[C@@H](Cc2ccccc2)NC(=O)[C@@H](CCN)NC1=O)[C@@H](C)O ({Heptanoyl(6-Me)}-[Dab]T[Dab][Dab][dDab][dF]L[Dab][Dab]T; lactam 4-C)	–	–	–	–	–	Flu intensity (Lipopolysaccharide (LPS) [4]): 12.3%; Flu intensity (Lipopolysaccharide (LPS) [5]): 45.3%
N=C(N)NCCCN(CCCNC(=N)N)c1nc(NCc2ccccc2)nc(N2CC(Cc3ccccc3)N(c3nc(NCc4ccccc4)nc(N(CCCNC(=N)N)CCCNC(=N)N)n3)CC2Cc2ccccc2)n1 (stereo not drawn)	8.2 µM (≈ 8.7 µg/mL)	16.5 µM (≈ 17.5 µg/mL)	226.4 µM	4.1 µM (≈ 4.35 µg/mL)	4.4 µM (≈ 4.67 µg/mL)	–
NCCCCNc1nc(NCCCCN)nc(N2CCN(c3nc(NCCCCN)nc(NCCCCN)n3)C(Cc3ccccc3)C2)n1 (stereo not drawn)	47 µM (≈ 31.9 µg/mL)	47 µM (≈ 31.9 µg/mL)	> 376.3 µM	23.5 µM (≈ 16 µg/mL)	23.5 µM (≈ 16 µg/mL)	–
O=C(O)c1cn(C2CC2)c2cc(N3CCNCC3)c(F)cc2c1=O [CIPROFLOXACIN]	–	–	–	–	–	MIC (Pseudomonas aeruginosa [6]): > 6180 µM; Activity (Pseudomonas aeruginosa [7]): inactive; MIC (Pseudomonas aeruginosa [8]): 1020 µg/mL; MIC (Staphylococcus aureus [9]): 512 µg/mL; MIC (Staphylococcus aureus [10]): > 6180 µM; MIC (Pseudomonas aeruginosa [11]): 3090 µM (≈ 1020 µg/mL); Activity (Pseudomonas aeruginosa [12]): inactive; MIC (Enterococcus faecium): 1550 µM (≈ 512 µg/mL); MIC (Pseudomonas aeruginosa [13]): 1020 µg/mL; MIC (Staphylococcus aureus [14]): > 6180 µM; MIC (Staphylococcus aureus [15]): > 6180 µM
N=C(N)NCCCCNc1nc(NCCCCNC(=N)N)nc(N2CC(Cc3ccccc3)N(c3nc(NCCCCNC(=N)N)nc(NCCCCNC(=N)N)n3)CC2Cc2ccccc2)n1 (stereo not drawn)	8.5 µM (≈ 7.97 µg/mL)	8.5 µM (≈ 7.97 µg/mL)	> 273.2 µM	8.5 µM (≈ 7.97 µg/mL)	8.5 µM (≈ 7.97 µg/mL)	MBEC50 (Pseudomonas aeruginosa [16]): 17.1 µM; MBEC90 (Pseudomonas aeruginosa [16]): 68.3 µM; MBIC (Pseudomonas aeruginosa [16]): 34.1 µM; MBIC50 (Pseudomonas aeruginosa [16]): 8.5 µM; MBEC50 (Pseudomonas aeruginosa [17]): 17.1 µM; MBEC90 (Pseudomonas aeruginosa [17]): 68.3 µM
NCCN(CCN)c1nc(NCc2ccccc2)nc(N2CCN(c3nc(NCc4ccc5ccccc5c4)nc(N(CCN)CCN)n3)C(Cc3ccccc3)C2)n1 (stereo not drawn)	20 µM (≈ 15.9 µg/mL)	40 µM (≈ 31.9 µg/mL)	> 320 µM	5 µM (≈ 3.99 µg/mL)	5 µM (≈ 3.99 µg/mL)	–
NCCCNc1nc(NCCCN)nc(N2CC(Cc3ccccc3)N(c3nc(NCCCN)nc(NCCCN)n3)CC2Cc2ccccc2)n1 (stereo not drawn)	22.4 µM (≈ 16 µg/mL)	11.2 µM (≈ 7.99 µg/mL)	> 358.4 µM	11.2 µM (≈ 7.99 µg/mL)	11.2 µM (≈ 7.99 µg/mL)	–
N=C(N)NCCCNc1nc(NCCCN)nc(N2CCN(c3nc(NCCCN)nc(NCCCN)n3)CC2Cc2ccccc2)n1 (stereo not drawn)	24 µM (≈ 16 µg/mL)	24 µM (≈ 16 µg/mL)	> 384 µM	12 µM (≈ 7.98 µg/mL)	12 µM (≈ 7.98 µg/mL)	–
N=C(N)NCCCNc1nc(NCCCNC(=N)N)nc(N2CC(Cc3ccccc3)N(c3nc(NCCCNC(=N)N)nc(NCCCNC(=N)N)n3)CC2Cc2ccccc2)n1 (stereo not drawn)	18.1 µM (≈ 15.9 µg/mL)	9.1 µM (≈ 8.02 µg/mL)	> 290.3 µM	9.1 µM (≈ 8.02 µg/mL)	4.5 µM (≈ 3.97 µg/mL)	MBEC50 (Pseudomonas aeruginosa [16]): 18.1 µM; MBEC90 (Pseudomonas aeruginosa [16]): 145.2 µM; MBIC (Pseudomonas aeruginosa [16]): 36.3 µM; MBIC50 (Pseudomonas aeruginosa [16]): 4.5 µM; MBEC50 (Pseudomonas aeruginosa [17]): 18.1 µM; MBEC90 (Pseudomonas aeruginosa [17]): 145.2 µM
N=C(N)NCCCNc1nc(NCCCNC(=N)N)nc(N2CCN(c3nc(NCCCNC(=N)N)nc(NCCCNC(=N)N)n3)C(Cc3ccccc3)C2)n1 (stereo not drawn)	20.2 µM (≈ 16 µg/mL)	20.2 µM (≈ 16 µg/mL)	> 322.6 µM	20.2 µM (≈ 16 µg/mL)	20.2 µM (≈ 16 µg/mL)	–
N=C(N)NCCCCNc1nc(NCCCCNC(=N)N)nc(N2CCN(c3nc(NCCCCNC(=N)N)nc(NCCCCNC(=N)N)n3)C(Cc3ccccc3)C2)n1 (stereo not drawn)	9.4 µM (≈ 7.96 µg/mL)	18.9 µM (≈ 16 µg/mL)	> 302.1 µM	4.7 µM (≈ 3.98 µg/mL)	9.4 µM (≈ 7.96 µg/mL)	–
NCCNc1nc(NCCN)nc(N2CCN(c3nc(NCCN)nc(NCCN)n3)C(Cc3ccccc3)C2)n1 (stereo not drawn)	28.2 µM (≈ 16 µg/mL)	56.4 µM (≈ 32 µg/mL)	> 451.1 µM	56.4 µM (≈ 32 µg/mL)	56.4 µM (≈ 32 µg/mL)	–
N=C(N)NCCCCNc1nc(NCCCCN)nc(N2CCN(c3nc(NCCCCN)nc(NCCCCN)n3)CC2Cc2ccccc2)n1 (stereo not drawn)	11.1 µM (≈ 8 µg/mL)	22.2 µM (≈ 16 µg/mL)	> 355.8 µM	5.6 µM (≈ 4.04 µg/mL)	11.1 µM (≈ 8 µg/mL)	–
COLISTIN	–	–	–	–	–	MIC (Pseudomonas aeruginosa [6]): 27.7 µM; MIC (Staphylococcus aureus [9]): 512 µg/mL; MIC (Staphylococcus aureus [10]): 27.7 µM; MIC (Pseudomonas aeruginosa [11]): 55.4 µM; MIC (Enterococcus faecium): 13.8 µM; MIC (Staphylococcus aureus [14]): 27.7 µM; MIC (Staphylococcus aureus [15]): 13.8 µM
N=C(N)NCCN(CCNC(=N)N)c1nc(NCc2ccccc2)nc(N2CCN(c3nc(NCc4ccc5ccccc5c4)nc(N(CCNC(=N)N)CCNC(=N)N)n3)C(Cc3ccccc3)C2)n1 (stereo not drawn)	16.6 µM (≈ 16 µg/mL)	16.6 µM (≈ 16 µg/mL)	37.3 µM	4.1 µM (≈ 3.96 µg/mL)	4.1 µM (≈ 3.96 µg/mL)	–
N=C(N)NCCN(CCNC(=N)N)c1nc(NCc2ccccc2)nc(N2CC(Cc3ccccc3)N(c3nc(NCc4ccccc4)nc(N(CCNC(=N)N)CCNC(=N)N)n3)CC2Cc2ccccc2)n1 (stereo not drawn)	8.7 µM (≈ 8.75 µg/mL)	8.7 µM (≈ 8.75 µg/mL)	124.5 µM	4.4 µM (≈ 4.42 µg/mL)	4.4 µM (≈ 4.42 µg/mL)	–
N=C(N)NCCNc1nc(NCCNC(=N)N)nc(N2CCN(c3nc(NCCNC(=N)N)nc(NCCNC(=N)N)n3)C(Cc3ccccc3)C2)n1 (stereo not drawn)	21.8 µM (≈ 16 µg/mL)	21.8 µM (≈ 16 µg/mL)	> 348.2 µM	21.8 µM (≈ 16 µg/mL)	21.8 µM (≈ 16 µg/mL)	–
N=C(N)NCCCN(CCCNC(=N)N)c1nc(NCc2ccccc2)nc(N2CC(Cc3ccccc3)N(c3nc(NCc4ccc5ccccc5c4)nc(N(CCCNC(=N)N)CCCNC(=N)N)n3)CC2Cc2ccccc2)n1 (stereo not drawn)	7.8 µM (≈ 8.67 µg/mL)	31.4 µM (≈ 34.9 µg/mL)	56.8 µM	3.9 µM (≈ 4.33 µg/mL)	15.7 µM (≈ 17.4 µg/mL)	–
NCCCN(CCCN)c1nc(NCc2ccccc2)nc(N2CC(Cc3ccccc3)N(c3nc(NCc4ccc5ccccc5c4)nc(N(CCCN)CCCN)n3)CC2Cc2ccccc2)n1 (stereo not drawn)	18.7 µM (≈ 17.6 µg/mL)	9.4 µM (≈ 8.87 µg/mL)	189.5 µM	4.7 µM (≈ 4.43 µg/mL)	4.7 µM (≈ 4.43 µg/mL)	–
Cc1onc(-c2ccccc2)c1C(=O)N[C@@H]1C(=O)N2[C@@H]1SC(C)(C)[C@@H]2C(=O)O [OXACILLIN]	–	–	–	–	–	MIC (Pseudomonas aeruginosa [6]): 5100 µM (≈ 2050 µg/mL); Activity (Pseudomonas aeruginosa [7]): inactive; MIC (Pseudomonas aeruginosa [8]): 1020 µg/mL; MIC (Staphylococcus aureus [9]): 1020 µg/mL; MIC (Staphylococcus aureus [10]): > 5100 µM; MIC (Pseudomonas aeruginosa [11]): 5100 µM (≈ 2050 µg/mL); Activity (Pseudomonas aeruginosa [12]): inactive; MIC (Enterococcus faecium): 2180 µM (≈ 873 µg/mL); MIC (Pseudomonas aeruginosa [13]): 1020 µg/mL; MIC (Staphylococcus aureus [14]): 2550 µM (≈ 1020 µg/mL); MIC (Staphylococcus aureus [15]): > 5100 µM
